Values joined by “and” are separate entries in the source; they are usually repeats but may differ in a detail not shown here. Identical values can stand only once. Values belong to the molecule of their own block, whether it stands above or below them.
Columns and labels:
[1] = test system: NCOR2 (Homo sapiens); assay: Chemoproteomic competition pulldown assay (co-competed NCoR partner); assay type: binding; conditions: iQ, SW620 lysate
Protocol: (§1) To identify proteins directly bound by lipoic acid, we employed a chemoproteomic competition assay. Briefly, (R/S)-LA was immobilized on sepharose beads via an amidation reaction to form an affinity matrix (abbreviated as iL; Fig. 1a). This affinity matrix can be incubated with cell lysate to pull down potential LA or LM target proteins and identify these targets via bottom-up proteomics. In a competition assay, free LA or LM were incubated with lysate at different concentrations before pulling down and quantifying target proteins. […] (Fig. 1b, see “Methods” for details). […] The lysate buffer used in this assay contains 1 mM DTT to mimic the intracellular reductive milieu and to reduce lipoic acid and LM. […] Additional competition assays performed in lung adenocarcinoma cell A549 lysate also identified HDAC1, HDAC2, and HDAC6 as targets (Supplementary Fig. 1b). Amongst the three cell lines tested, HDACs were the only confidently identified targets across the 1500–3000 proteins quantified in these assays. […] We validated the results by analogous pulldown competition assays using two other affinity matrices prepared via the immobilization of either the HDAC inhibitor Quisinostat (iQ) and an analog of the class IIa HDAC inhibitor Bürli’s 31[14] (iC)[12]. We have previously shown that these affinity matrices specifically bind to the active sites of HDACs and have used them for HDACi selectivity profiling. Indeed, binding of (R/S)-LA and (R/S)-LM to HDAC1, HDAC2, HDAC3, HDAC6, and, to a lesser extent, HDAC8 was confirmed in these assays (Supplementary Fig. 1c, d). No binding to class IIa HDACs or the recently discovered common HDAC inhibitor off-target MBLAC2 was observed (Supplementary Fig. 1e)[12]. […] This observation might reflect electrostatic repulsion between the HDAC10 active site gate-keeper glutamic acid residues[15],[16] and the terminal carboxylic acid of LA.
(§2) To assess the degree of protein depletion from lysates by the affinity matrix, a second pulldown (PDPD) with fresh beads was performed using the unbound protein fraction from the vehicle control flow through. The beads were washed (1 × 1 mL of lysis buffer without inhibitors and only 0.4% Igepal, 2 × 2 mL of lysis buffer without inhibitors and only 0.2% Igepal), and captured proteins were denatured with 8 M urea buffer, alkylated with 55 mM chloroacetamide and digested with Trypsin according to standard procedures. The resulting peptides were desalted on a C18 filter plate (Sep-Pak® tC18 µElution Plate, Waters), vacuum dried, and stored at −20 °C until LC–MSMS measurement.
(§3) For the competition assays, relative binding was calculated based on the protein intensity ratio to the DMSO control for every single inhibitor concentration. EC50 values were derived from a four-parameter log-logistic regression with variable slope (constrain: bottom > 0). The obtained EC50 values were multiplied with a protein-dependent correction factor (cf), resulting in the apparent Kd value (Kd^app). The correction factor is determined by calculating the ratio of the protein intensity of two consecutive pulldowns of the vehicle control sample[13]. Targets of the inhibitors were annotated manually according to published procedures[12],[46],[47]. […] Additionally, the number of unique peptides and MSMS counts per condition were taken into account. Positive target binding across several independent experiments performed with different cell lysates further substantiated our confidence for a true positive drug-target binding event.

[2] = test system: A549 cells; assay: CellRox deep red assay for tBuOOH-induced ROS; conditions: for tBuOOH-induced ROS (CellRox), relative to DMSO, Mean / tBuOOH-induced ROS (CellRox), relative to DMSO, replicate values: sheet 4c, DMSO mean = 1
[3] = test system: NCOR1 (Homo sapiens); assay: Chemoproteomic competition pulldown assay (co-competed NCoR partner); assay type: binding; conditions: iQ, SW620 lysate
Chain of NCOR1 (Homo sapiens) (O15379 whole entry): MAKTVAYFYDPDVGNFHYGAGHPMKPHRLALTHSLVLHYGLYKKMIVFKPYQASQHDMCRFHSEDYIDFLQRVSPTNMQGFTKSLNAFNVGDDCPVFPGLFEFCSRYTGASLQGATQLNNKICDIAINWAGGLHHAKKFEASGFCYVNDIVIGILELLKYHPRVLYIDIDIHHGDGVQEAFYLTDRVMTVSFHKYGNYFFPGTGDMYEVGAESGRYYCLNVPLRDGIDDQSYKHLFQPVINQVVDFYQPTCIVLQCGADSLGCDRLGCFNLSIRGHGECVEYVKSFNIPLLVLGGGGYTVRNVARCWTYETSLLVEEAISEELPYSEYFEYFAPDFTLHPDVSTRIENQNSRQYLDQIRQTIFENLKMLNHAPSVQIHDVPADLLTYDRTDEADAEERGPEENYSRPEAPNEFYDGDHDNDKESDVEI
Chain of NCOR1 (Homo sapiens) (O75376 whole entry, further chain): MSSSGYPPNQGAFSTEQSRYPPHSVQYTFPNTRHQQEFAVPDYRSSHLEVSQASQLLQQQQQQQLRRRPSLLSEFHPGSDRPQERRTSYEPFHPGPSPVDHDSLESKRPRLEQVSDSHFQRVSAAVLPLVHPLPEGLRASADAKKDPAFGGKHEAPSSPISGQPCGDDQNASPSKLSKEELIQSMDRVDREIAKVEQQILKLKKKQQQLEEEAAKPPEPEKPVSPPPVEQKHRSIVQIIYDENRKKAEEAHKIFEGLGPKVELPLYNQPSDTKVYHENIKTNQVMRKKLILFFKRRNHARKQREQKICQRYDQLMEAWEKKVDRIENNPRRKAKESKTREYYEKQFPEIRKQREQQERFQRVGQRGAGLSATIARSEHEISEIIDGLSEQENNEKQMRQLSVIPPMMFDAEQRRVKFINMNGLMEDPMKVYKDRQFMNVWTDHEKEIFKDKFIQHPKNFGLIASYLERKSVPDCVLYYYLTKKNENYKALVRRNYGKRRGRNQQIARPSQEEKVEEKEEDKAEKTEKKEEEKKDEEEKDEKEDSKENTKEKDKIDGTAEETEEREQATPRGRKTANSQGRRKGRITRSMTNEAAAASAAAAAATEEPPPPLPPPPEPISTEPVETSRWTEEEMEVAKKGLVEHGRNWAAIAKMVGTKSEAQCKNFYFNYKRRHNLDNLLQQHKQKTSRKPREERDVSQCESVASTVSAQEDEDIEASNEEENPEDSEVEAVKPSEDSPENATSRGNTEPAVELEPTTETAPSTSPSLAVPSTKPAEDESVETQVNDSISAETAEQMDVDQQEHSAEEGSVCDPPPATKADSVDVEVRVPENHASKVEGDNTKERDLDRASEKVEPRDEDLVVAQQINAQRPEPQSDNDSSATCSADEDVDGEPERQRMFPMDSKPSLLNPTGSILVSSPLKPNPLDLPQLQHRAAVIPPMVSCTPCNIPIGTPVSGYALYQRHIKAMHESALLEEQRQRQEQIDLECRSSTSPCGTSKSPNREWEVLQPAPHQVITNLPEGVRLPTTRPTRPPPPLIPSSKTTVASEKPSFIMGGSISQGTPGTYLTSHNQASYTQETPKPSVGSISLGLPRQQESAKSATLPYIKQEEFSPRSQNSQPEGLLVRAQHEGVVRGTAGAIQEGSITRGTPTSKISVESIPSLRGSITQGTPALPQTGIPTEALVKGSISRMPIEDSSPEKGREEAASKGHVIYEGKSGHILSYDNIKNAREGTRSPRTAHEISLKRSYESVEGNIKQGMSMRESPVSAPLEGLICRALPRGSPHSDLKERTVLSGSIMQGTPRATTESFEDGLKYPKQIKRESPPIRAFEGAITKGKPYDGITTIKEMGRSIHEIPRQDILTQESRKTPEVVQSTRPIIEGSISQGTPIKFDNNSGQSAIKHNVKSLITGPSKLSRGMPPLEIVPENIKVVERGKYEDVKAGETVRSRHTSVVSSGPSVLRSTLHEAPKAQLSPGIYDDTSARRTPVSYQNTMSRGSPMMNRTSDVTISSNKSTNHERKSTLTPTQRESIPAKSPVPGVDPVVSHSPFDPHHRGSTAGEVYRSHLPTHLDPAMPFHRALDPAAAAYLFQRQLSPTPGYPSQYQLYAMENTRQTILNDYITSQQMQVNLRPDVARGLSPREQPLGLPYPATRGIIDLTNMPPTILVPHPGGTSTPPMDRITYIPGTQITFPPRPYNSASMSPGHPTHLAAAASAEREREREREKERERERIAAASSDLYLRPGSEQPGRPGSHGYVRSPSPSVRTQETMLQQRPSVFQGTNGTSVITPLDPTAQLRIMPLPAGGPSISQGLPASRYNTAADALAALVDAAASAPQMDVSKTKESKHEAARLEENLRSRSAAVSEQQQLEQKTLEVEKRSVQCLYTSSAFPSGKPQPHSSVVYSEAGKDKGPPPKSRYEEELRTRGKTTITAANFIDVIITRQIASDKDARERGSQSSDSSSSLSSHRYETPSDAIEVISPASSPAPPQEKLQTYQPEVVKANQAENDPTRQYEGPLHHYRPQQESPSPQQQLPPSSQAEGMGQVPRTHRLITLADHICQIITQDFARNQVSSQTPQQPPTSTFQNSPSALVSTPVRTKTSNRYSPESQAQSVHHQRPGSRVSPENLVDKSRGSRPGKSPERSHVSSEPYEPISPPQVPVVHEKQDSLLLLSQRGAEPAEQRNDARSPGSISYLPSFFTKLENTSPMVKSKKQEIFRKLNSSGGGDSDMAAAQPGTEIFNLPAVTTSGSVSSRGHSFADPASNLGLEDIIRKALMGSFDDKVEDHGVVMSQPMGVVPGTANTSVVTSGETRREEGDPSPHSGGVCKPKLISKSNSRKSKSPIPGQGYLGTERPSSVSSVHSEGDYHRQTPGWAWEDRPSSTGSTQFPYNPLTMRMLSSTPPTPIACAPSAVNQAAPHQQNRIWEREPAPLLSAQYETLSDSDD
Protocol: as §1, §2, §3

[4] = molecular target: T1, HDAC10 (Homo sapiens, UniProt Q969S8); assay: NanoBRET intracellular target engagement assay; assay type: cell-based; conditions: HeLa cells
T1 construct: host or cells: HeLa mono-clones, stably expressing
T1 sequence (Q969S8 1-669): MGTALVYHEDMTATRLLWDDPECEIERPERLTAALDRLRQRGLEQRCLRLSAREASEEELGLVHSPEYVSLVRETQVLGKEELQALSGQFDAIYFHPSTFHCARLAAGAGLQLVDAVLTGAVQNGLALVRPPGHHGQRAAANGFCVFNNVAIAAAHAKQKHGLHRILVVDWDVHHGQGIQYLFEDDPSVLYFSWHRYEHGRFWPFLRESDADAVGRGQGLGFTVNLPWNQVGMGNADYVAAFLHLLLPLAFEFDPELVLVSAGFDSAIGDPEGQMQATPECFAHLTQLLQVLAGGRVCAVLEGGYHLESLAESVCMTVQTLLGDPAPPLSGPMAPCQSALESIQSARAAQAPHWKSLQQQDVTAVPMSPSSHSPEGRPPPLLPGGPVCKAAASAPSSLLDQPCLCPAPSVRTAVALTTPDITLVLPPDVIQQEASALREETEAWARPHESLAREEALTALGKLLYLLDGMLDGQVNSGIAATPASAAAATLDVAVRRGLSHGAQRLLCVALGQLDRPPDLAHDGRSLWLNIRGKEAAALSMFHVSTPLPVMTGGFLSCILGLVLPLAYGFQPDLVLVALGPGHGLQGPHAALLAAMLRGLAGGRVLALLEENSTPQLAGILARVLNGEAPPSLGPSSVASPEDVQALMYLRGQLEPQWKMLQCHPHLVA
Protocol: For the production of transfected HeLa mono-clones stably expressing HDAC-nanoBRET fusion proteins of HDAC10 and HDAC6-catalytic domain 2 (HDAC6CD2), plasmids expressing a fusion of HDAC10 with nanoluciferase were obtained from Promega (N2170). HeLa cells (0.75 × 10^6) were seeded in a 6 cm dish and were transfected with a mix of 10 μg plasmid and 3 μL Fugene in 200 μL OptiMEM after 24 h. The intracellular target engagement assay on HDAC10 and HDAC6CD2 was performed using the NanoBRET™ Target Engagement Intracellular HDAC Assay (Promega N2081 and N2090) as described by the kit manufacturer in a 96-well plate (Corning 3600) format with 2 × 10^4 cells per well and a tracer concentration of 0.3 μM. Inhibitors were dosed with a D300e Digital Dispenser (Tecan). DMSO concentrations were normalized to 0.5% for all wells. After dosing, assay plates were shaken at 800 rpm and incubated at 37 °C for 2 h followed by measurement of 450 nm and 650 nm luminescence (80 nm bandwidth) at room temperature with a CLARIOstar (BMG Labtech) plate reader 2 min after NanoLuc substrate addition.

Structure (SMILES): O=C(O)CCCCC1CCSS1 (racemic) [(R/S)-LA, (R/S)-lipoic acid]
- relative binding vs DMSO ([1]; log10 M -3.52288): 0
- relative binding vs DMSO ([1]; log10 M -4): 0
- relative binding vs DMSO ([1]; log10 M -4.52288): 0.568
- relative binding vs DMSO ([1]; log10 M -5): 0.5133
- relative binding vs DMSO ([1]; log10 M -5.52288): 0.9883
- relative binding vs DMSO ([1]; log10 M -6): 0.9231
- relative binding vs DMSO ([1]; log10 M -6.52288): 1.028
- relative binding vs DMSO ([1]; log10 M -7): 1.032
- levels of ROS (oxidative stress) relative to control ([2]; 100 µM drug pre-treatment, 2 h 200 µM tBuOOH): 60–70%
- tBuOOH-induced ROS (CellRox), relative to DMSO, Mean ([2]; (R/S)-LA 10 ?M): 0.7284
- tBuOOH-induced ROS (CellRox), relative to DMSO, replicate values ([2]; (R/S)-LA 10 ?M): 0.6361 and 0.7994 and 0.7496
- tBuOOH-induced ROS (CellRox), relative to DMSO, Mean ([2]; (R/S)-LA 30 ?M): 0.7039
- tBuOOH-induced ROS (CellRox), relative to DMSO, replicate values ([2]; (R/S)-LA 30 ?M): 0.5919 and 0.6862 and 0.8337
- tBuOOH-induced ROS (CellRox), relative to DMSO, Mean ([2]; (R/S)-LA 100 ?M): 0.6085
- tBuOOH-induced ROS (CellRox), relative to DMSO, replicate values ([2]; (R/S)-LA 100 ?M): 0.608 and 0.6603 and 0.5572
- tBuOOH-induced ROS (CellRox), relative to DMSO, Mean ([2]; (R/S)-LA 300 ?M): 0.7233
- tBuOOH-induced ROS (CellRox), relative to DMSO, replicate values ([2]; (R/S)-LA 300 ?M): 0.909 and 0.609 and 0.652

- relative binding vs DMSO ([3]; log10 M -3.52288): 0.2142
- relative binding vs DMSO ([3]; log10 M -4): 0.3668
- relative binding vs DMSO ([3]; log10 M -4.52288): 0.5065
- relative binding vs DMSO ([3]; log10 M -5): 0.4972
- relative binding vs DMSO ([3]; log10 M -5.52288): 0.5554
- relative binding vs DMSO ([3]; log10 M -6): 0.6839
- relative binding vs DMSO ([3]; log10 M -6.52288): 0.8502
- relative binding vs DMSO ([3]; log10 M -7): 0.9007
- intracellular binding to HDAC10 [4]: dose-dependent intracellular binding
Structure (SMILES): NC(=O)CCCCC1CCSS1 (racemic) [(R/S)-LM, (R/S)-lipoamide]
